According to the supplement of paper PMC10307832:

How the values were obtained:
Assay in all cases: relative viability (nuclei count vs DMSO), 5 days (fraction); higher = more cells survive
[1] = compound: CCc1cnn2c(NCc3ccc[n+]([O-])c3)cc(N3CCCC[C@H]3CCO)nc12 [Dinaciclib]
Outline: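 Acceptance criteria were a control CV below 25% and at least one doubling per plate. Lung cancer cell lines in 1536-well plates got five library-drug doses (not always all listed) √10 apart by pinning and were left 5 days with no medium change. Viability divides treated-well nuclei by vehicle-well nuclei and is the median across plates. Nuclei were counted by MetaXpress from 4× Hoechst images.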

[2] = compound: CCc1cnn2c(NCc3ccc[n+]([O-])c3)cc(N3CCCC[C@H]3CCO)nc12 [Dinaciclib] + CC1(C)CCC(c2ccc(Cl)cc2)=C(CN2CCN(c3ccc(C(=O)NS(=O)(=O)c4ccc(N[C@H](CCN5CCOCC5)CSc5ccccc5)c(S(=O)(=O)C(F)(F)F)c4)cc3)CC2)C1 [Navitoclax] (partner 0.5 µM)
Outline: (§1)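 Nuclei were stained with Hoechst during a one-step fixation (final 0.05% Triton X-100, 1% formaldehyde, 1 ug/ml Hoechst) carried out 5 days after dosing, then counted on 4× images. The cells, lung cancer lines in 1536-well plates, had been dosed by pin tool the day after seeding with one drug alone or a fixed anchor-drug dose plus five library-drug doses (not always all listed) in √10 steps. Relative viability is the nuclei count in treated wells divided by that in vehicle wells, and each value is the median of duplicate plates.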

[3] = compound: CCc1cnn2c(NCc3ccc[n+]([O-])c3)cc(N3CCCC[C@H]3CCO)nc12 [Dinaciclib] + COc1cccc2cc(-c3nc([C@H]4CC[C@H](C(=O)O)CC4)n4ncnc(N)c34)[nH]c12 [OSI-027] (partner 0.5 µM)
Outline: as §1

[4] = compound: CCc1cnn2c(NCc3ccc[n+]([O-])c3)cc(N3CCCC[C@H]3CCO)nc12 [Dinaciclib] + CS(=O)(=O)N1CCN(Cc2cc3nc(-c4cccc5[nH]ncc45)nc(N4CCOCC4)c3s2)CC1 [Pictilisib] (partner 1 µM)
Outline: as §1

[5] = compound: CCc1cnn2c(NCc3ccc[n+]([O-])c3)cc(N3CCCC[C@H]3CCO)nc12 [Dinaciclib] + Nc1ncn([C@H]2C[C@H](O)[C@@H](CO)O2)c(=O)n1 [Decitabine] (partner 2 µM)
Outline: as §1

Cell Line | relative viability ([1]; 0.009487 µM) | relative viability ([1]; 0.03 µM) | relative viability ([1]; 0.09487 µM) | relative viability ([1]; 0.3 µM) | relative viability ([2]; first compound 0.009487 µM) | relative viability ([2]; first compound 0.03 µM) | relative viability ([2]; first compound 0.09487 µM) | relative viability ([2]; first compound 0.3 µM) | relative viability ([3]; first compound 0.009487 µM) | relative viability ([3]; first compound 0.03 µM) | relative viability ([3]; first compound 0.09487 µM) | relative viability ([3]; first compound 0.3 µM) | relative viability ([4]; first compound 0.009487 µM) | relative viability ([4]; first compound 0.03 µM) | relative viability ([4]; first compound 0.09487 µM) | relative viability ([4]; first compound 0.3 µM) | relative viability ([5]; first compound 0.009487 µM) | relative viability ([5]; first compound 0.03 µM) | relative viability ([5]; first compound 0.09487 µM) | relative viability ([5]; first compound 0.3 µM)
PC-3 [JPC-3] | 1.05 | 0.92 | 0.4 | 0.266 | 0.764 | 0.713 | 0.394 | 0.2 | 0.764 | 0.693 | 0.249 | 0.209 | 0.556 | 0.578 | 0.262 | 0.233 | 0.794 | 0.671 | 0.34 | 0.302
PC-14 | 0.766 | 0.163 | 0.0662 | 0.0529 | 0.78 | 0.0911 | 0.0667 | 0.0708 | 0.66 | 0.0841 | 0.0393 | 0.0423 | 0.436 | 0.145 | 0.0318 | 0.0249 | 0.157 | 0.0718 | 0.0642 | 0.0671
RERF-LC-KJ | 1.01 | 0.29 | 0.176 | 0.156 | 0.906 | 0.172 | 0.122 | 0.169 | 0.461 | 0.177 | 0.185 | 0.182 | 0.448 | 0.19 | 0.124 | 0.117 | 0.476 | 0.157 | 0.157 | 0.147
SK-LU-1 | 1.09 | 0.227 | 0.192 | 0.196 | 0.746 | 0.0883 | 0.0998 | 0.11 | 0.425 | 0.116 | 0.145 | 0.112 | 0.57 | 0.167 | 0.155 | 0.152 | 0.64 | 0.234 | 0.211 | 0.227
SK-MES-1 | 1.04 | 0.295 | 0.163 | 0.15 | 1.26 | 0.131 | 0.114 | 0.119 | 0.559 | 0.13 | 0.136 | 0.149 | 0.381 | 0.24 | 0.128 | 0.128 | 0.362 | 0.157 | 0.156 | 0.166
SW 1573 | 0.83 | 0.133 | 0.0862 | 0.081 | 0.919 | 0.0461 | 0.0459 | 0.0437 | 0.372 | 0.0612 | 0.0644 | 0.0645 | 0.452 | 0.225 | 0.0748 | 0.064 | 0.314 | 0.0932 | 0.065 | 0.0758
UMC-11 | 0.405 | 0.204 | 0.179 | 0.196 | 0.133 | 0.103 | 0.113 | 0.102 | 0.267 | 0.203 | 0.177 | 0.153 | 0.217 | 0.145 | 0.132 | 0.136 | 0.531 | 0.197 | 0.2 | 0.169
